From patent US20240254107A1, “RNA-TARGETING LIGANDS, COMPOSITIONS THEREOF, AND METHODS OF MAKING AND USING THE SAME” (THE UNIVERSITY OF NORTH CAROLINA AT CHAPEL HILL, priority 2021, published 2024)
Where two headings read alike, the source gives them in different places.

Key:
TPP riboswitch RNA = assay: Isothermal titration calorimetry (ITC) binding to TPP riboswitch RNA; conditions: for binding cooperativity with 2: ITC with and without pre-bound 2
[1] = system: TPP riboswitch region of the screening construct; assay: SHAPE / SHAPE-MaP fragment screening and replicate hit validation; type: binding; conditions: RNA pre-bound to primary fragment, fragment 1 mM, 5NIA reagent
Method: Fragments were obtained as a fragment screening library from Maybridge, which was a subset of their Ro3 diversity fragment library and contained 1500 compounds dissolved in DMSO at 50 mM. Most of these compounds adhere to the “rule of three” for fragment compounds; having a molecular mass <300 Da, containing ≤3 hydrogen bond donors and ≤3 hydrogen bond acceptors, and ClogP ≤3.0. All compounds used for ITC, with the exception of those listed in Example 5, were purchased from Millipore-Sigma and used without further purification. Screening experiments were carried out in 25 μL in 96-well plate format on a Tecan Freedom Evo-150 liquid handler equipped with an 8-channel air displacement pipetting arm, disposable filter tips, robotic manipulator arm, and an EchoTherm RIC20 remote controlled heating/cooling dry bath (Torrey Pines Scientific). Liquid handler programs used for screening are available upon request. […]
Once screening of test fragments is complete, statistical tests are carried out to identify differences in modification rates of a given nucleotide. […] That is, if m1 modifications of a tested nucleotide were counted among n1 reads in sample 1 and m2 modifications were counted among n2 reads in sample 2, the tested null hypothesis predicts that among all the counted modifications (m1+m2), the proportion of modifications in sample 1 will be p1=n1/(n1+n2). […]

[2] = Table 8, linked analogs, read-out: Kd
[3] = Table 4, fragment 5 analogs, pendant groups, ITC, read-out: Kd
[4] = Table 4, fragment 5 analogs, pendant groups, ITC

Q: For `O=C(CNc1cnccc1N1CCNCC1)Nc1ccc2nccnc2c1` [KW-29-1, 2-((4-(piperazin-1-yl)pyridin-3-yl)amino)-N-(quinoxalin-6-yl)acetamide], which Kd (TPP riboswitch RNA; [2]) is on record?
A: The Kd was 10.5 µM.

Q: Which Kd (TPP riboswitch RNA; [3]) does the source give for `CCOc1ccc(C(=O)OC)cn1` [Compound S7] here?
A: The Kd was 1800 µM.

Q: For `COC(=O)c1ccc([N+](=O)[O-])nc1` [Compound S6], which Kd (TPP riboswitch RNA; [3]) is on record?
A: The Kd was 390 µM.

Q: For `CCS(=O)(=O)c1ccc(Cl)nc1` [Compound S17], which Kd (TPP riboswitch RNA; [4]) is on record?
A: The Kd was “no binding”.

Q: How did the Kd (TPP riboswitch RNA; Table 1, SHAPE-detected fragment hits, ITC, read-out: Kd) turn out when `Cc1ncc(C[n+]2csc(CCOP(=O)([O-])OP(=O)(O)O)c2C)c(N)n1` [Compound 9, thiamine pyrophosphate, reference compound] was run?
A: The Kd was 0.028 ± 0.002 µM.

Q: Which Kd (TPP riboswitch RNA; Table 3, fragment 5 analogs, pyridine core modifications, ITC, read-out: Kd) does the source give for `c1cc2[nH]cnc2cn1` [Compound 6] here?
A: Its Kd is 265 µM.

Q: `COC(=O)c1ccc(C)nc1` [Compound S8] was tested. Which Kd (TPP riboswitch RNA; [3]) did it give?
A: Its Kd is 1100 µM.

Q: With `NS(=O)(=O)c1ccc(Cl)nc1` [Compound S16] as the molecule, how does the Kd (TPP riboswitch RNA; [3]) read?
A: The Kd was 1300 µM.

Q: `O=C(CCCC(=O)Nc1ccc2nccnc2c1)NO` [KW-5-1, N^1-hydroxy-N^5-(quinoxalin-6-yl)glutaramide] was tested. Which Kd (TPP riboswitch RNA; [2]) did it give?
A: The Kd was 477 µM.

Q: With `COC(=O)c1ccc(Br)nc1` [Compound S5] as the molecule, how does the Kd (TPP riboswitch RNA; [3]) read?
A: Its Kd is 440 µM.

Q: How did the Kd (TPP riboswitch RNA; [4]) turn out when `CN(C)C(=O)c1ccc(Cl)nc1` [Compound S18] was run?
A: Its Kd is “no binding”.

Q: With `NC(=O)c1ccc(Cl)nc1` [Compound S15] as the molecule, how does the Kd (TPP riboswitch RNA; [3]) read?
A: Its Kd is 1800 µM.

Q: How did the Kd (TPP riboswitch RNA; [2]) turn out when `O=C(O)CCC(=O)Nc1ccc2nccnc2c1` [KW-16-1] was run?
A: The Kd was 653 µM.

Q: `COC(=O)c1cnc(Cl)c(Cl)c1` [Compound S11] was tested. Which Kd (TPP riboswitch RNA; [3]) did it give?
A: Its Kd is 820 µM.

Q: `COC(=O)c1ccc(Oc2ccccc2)nc1` [Compound S10] was tested. Which Kd (TPP riboswitch RNA; [4]) did it give?
A: Its Kd is “no binding”.

Q: For `Cc1cnccc1N1CCNCC1` [Compound 32], which “binding cooperativity with 2” value (TPP riboswitch RNA) is on record?
A: Its value is “clear, but modest, binding cooperativity”.

Q: With `CN(C)CCN(C=O)Cc1ccc2nccnc2c1` [KW-79-1, N-(2-(dimethylamino)ethyl)-N-(quinoxalin-6-ylmethyl)formamide] as the molecule, how does the Kd (TPP riboswitch RNA; [2]) read?
A: The Kd was 69.1 µM.

Q: For `O=C(CNc1ccc2nccnc2c1)NO` [KW-31-1, N-hydroxy-2-(quinoxalin-6-ylamino)acetamide], which Kd (TPP riboswitch RNA; [2]) is on record?
A: Its Kd is 58.1 µM.

Q: `Cc1cccc2nccnc12` [Compound 23] was tested. Which Kd (TPP riboswitch RNA; Table 2B, fragment 2 analogs, pendant groups, ITC, read-out: Kd) did it give?
A: The Kd was 220 µM.

Q: With `CCOC(=O)c1ccc(Cl)nc1` [Compound S13] as the molecule, how does the Kd (TPP riboswitch RNA; [3]) read?
A: Its Kd is 600 µM.

Q: With `OCc1ccc(Cl)nc1` [Compound S14] as the molecule, how does the Kd (TPP riboswitch RNA; [3]) read?
A: The Kd was 1300 µM.

Q: How did the Kd (TPP riboswitch RNA; [4]) turn out when `COC(=O)c1ccc(C(F)(F)F)nc1` [Compound S9] was run?
A: Its Kd is “no binding”.

Q: How did the Kd (TPP riboswitch RNA; [3]) turn out when `COC(=O)c1cnc(Cl)cc1Cl` [Compound S12] was run?
A: The Kd was 93 µM.

Q: And the “fold higher affinity for the TPP riboswitch than fragment 5” value (TPP riboswitch RNA; relative to fragment 5)?
A: Its value is “approximately threefold”.

Q: With `O=C(O)c1csc2ccc(Cl)cc12` [Compound 29] as the molecule, how does the “binding detected by SHAPE, second-round screen” value [1] read?
A: The value was “induced a very robust change in the SHAPE reactivity signal”.

Q: `c1cc(N2CCNCC2)ccn1` [Compound 31] was tested. Which “binding cooperativity with 2” value (TPP riboswitch RNA) did it give?
A: The value was “clear, but modest, binding cooperativity”.
